Measured values taken from patent US20250170141A1, “MRGPRX2 MODULATORS AND RELATED METHODS OF TREATMENT” (Escient Pharmaceuticals, Inc., priority 2023, published 2025).

Target: T1, human MRGPRX2 (Homo sapiens, UniProt Q96LB1)
T1 construct: expressed in transfected cells; host or cells: CHO cells, stably transfected (G418 and Hygromycin B selection)
T1 sequence (Q96LB1 1-330): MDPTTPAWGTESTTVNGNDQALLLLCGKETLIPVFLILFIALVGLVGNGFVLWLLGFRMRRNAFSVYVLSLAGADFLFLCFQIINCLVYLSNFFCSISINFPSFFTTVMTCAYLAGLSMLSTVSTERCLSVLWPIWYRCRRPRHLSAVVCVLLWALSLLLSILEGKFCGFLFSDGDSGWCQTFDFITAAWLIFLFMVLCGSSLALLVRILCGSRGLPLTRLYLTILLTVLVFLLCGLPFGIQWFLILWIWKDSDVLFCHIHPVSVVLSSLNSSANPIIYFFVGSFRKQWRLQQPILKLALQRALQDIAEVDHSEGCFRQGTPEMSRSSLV
Assay: MRGPRX2 activity: IP-One Gq HTRF assay in CHO cells, antagonism versus 0.3 uM Cortistatin-14
Assay type: cell-based
Conditions: versus 0.3 uM Cortistatin-14 agonist, CHO cells expressing human MRGPRX2, read-out: MRGPRX2 Antagonist Activity
Description: CHO cells stably transfected to express human MRGPRX2 were maintained in an incubator at 37° C. with 5% CO2 and grown in F12 (HAM) media with 10% fetal bovine serum (FBS), 1% Glutamax, 1% penicillin/streptomycin, 800 μg/mL Geneticin (G418), and 300 μg/mL Hygromycin B.
Cells were plated in a 384-well assay plate at 20,000 cells per well in 12 μL of Opti-MEM and kept in an incubator overnight. On the day of the assay, compounds solubilized at 10 mM in DMSO were added as a 10-point curve (30 uM final top concentration with 1:3 serial dilutions) using a Tecan D300E digital dispenser. Agonists were diluted in assay buffer (final concentrations of 5.7 mM Tris-HCl, 43 mM NaCl, 50 mM LiCl, pH=8) and 2 μL of the agonist Cortistatin-14 (CPC Scientific, catalog CORT-002) are added to each well. Final concentrations of agonists were 0.3 μM Cortistatin. Final concentrations of DMSO were kept consistent across the plate. Plates were incubated in the dark for 1 h at 37° C. and then for 1 h at room temperature. IP-1 standards and HTRF detection reagents were added according to the IP-One—Gq Kit purchased from Cisbio (part number 62IPAPEJ) and incubated in the dark for 1 h at room temperature. The plate was read on a Molecular Devices SpectraMax iD5 plate reader. The HTRF ratio was calculated from the raw data and graphed using GraphPad Prism to calculate an IC50 value for each compound.
The activity ranges are denoted as follows: “+++++” denotes antagonist activity <100 nM; “++++” denotes antagonist activity between 100 and 500 nM; “+++” denotes activity between 501 and 1000 nM; “++” denotes activity between 1001 and 2500 nM; and “+” denotes activity >2500 nM.

## O=S1(=O)N=C(NCc2ncccc2F)Nc2c(Oc3ccccc3Cl)c(F)cc(F)c21 [Compound 1-1, 5-(2-chlorophenoxy)-6,8-difluoro-3-(((3-fluoropyridin-2-yl)methyl)amino)-4H-benzo[e][1,2,4]thiadiazine 1,1-dioxide]
  IC50: 100 to 500 nM

## O=S1(=O)N=C(NCc2ccccc2F)Nc2c1ccc(F)c2Oc1ccccc1Cl [Compound 1-2, 5-(2-chlorophenoxy)-6-fluoro-3-((2-fluorobenzyl)amino)-4H-benzo[e][1,2,4]thiadiazine 1,1-dioxide]
  IC50: < 100 nM

## COc1cccc(CNC2=NS(=O)(=O)c3ccc(F)c(Oc4ccccc4Cl)c3N2)c1 [Compound 1-3, 5-(2-chlorophenoxy)-6-fluoro-3-((3-methoxybenzyl)amino)-4H-benzo[e][1,2,4]thiadiazine 1,1-dioxide]
  IC50: 100 to 500 nM

## Cc1ccc2c(c1Oc1ccccc1Cl)NC(NCc1ncccc1F)=NS2(=O)=O [Compound 1-4, 5-(2-chlorophenoxy)-3-(((3-fluoropyridin-2-yl)methyl)amino)-6-methyl-4H-benzo[e][1,2,4]thiadiazine 1,1-dioxide]
  IC50: < 100 nM

## O=S1(=O)N=C(NCc2ncccc2F)Nc2c1cc(F)c(F)c2Oc1ccccc1Cl [Compound 1-5, 5-(2-chlorophenoxy)-6,7-difluoro-3-(((3-fluoropyridin-2-yl)methyl)amino)-4H-benzo[e][1,2,4]thiadiazine 1,1-dioxide]
  IC50: < 100 nM

## O=S1(=O)N=C(NCc2ncccc2Cl)Nc2c1cc(F)c(F)c2Oc1ccccc1Cl [Compound 1-6, 5-(2-chlorophenoxy)-3-(((3-chloropyridin-2-yl)methyl)amino)-6,7-difluoro-4H-benzo[e][1,2,4]thiadiazine 1,1-dioxide]
  IC50: < 100 nM

## COc1cccnc1CNC1=NS(=O)(=O)c2cc(F)c(F)c(Oc3ccccc3Cl)c2N1 [Compound 1-7, 5-(2-chlorophenoxy)-6,7-difluoro-3-(((3-methoxypyridin-2-yl)methyl)amino)-4H-benzo[e][1,2,4]thiadiazine 1,1-dioxide]
  IC50: 100 to 500 nM

## N#Cc1ccccc1Oc1c(F)ccc2c1NC(NCc1ncccc1F)=NS2(=O)=O [Compound 1-8, 2-((6-fluoro-3-(((3-fluoropyridin-2-yl)methyl)amino)-1,1-dioxido-4H-benzo[e][1,2,4]thiadiazin-5-yl)oxy)benzonitrile]
  IC50: < 100 nM

## O=S1(=O)N=C(NCc2ncccc2F)Nc2c1ccc(F)c2Oc1c(Cl)cccc1Cl [Compound 1-9, 5-(2,6-dichlorophenoxy)-6-fluoro-3-(((3-fluoropyridin-2-yl)methyl)amino)-4H-benzo[e][1,2,4]thiadiazine 1,1-dioxide]
  IC50: < 100 nM

## O=S1(=O)N=C(NCc2ncccc2F)Nc2c1ccc(F)c2Oc1cccc(Cl)c1Cl [Compound 1-10, 5-(2,3-dichlorophenoxy)-6-fluoro-3-(((3-fluoropyridin-2-yl)methyl)amino)-4H-benzo[e][1,2,4]thiadiazine 1,1-dioxide]
  IC50: < 100 nM

## O=S1(=O)N=C(NCc2cccc(F)c2)Nc2c1ccc(F)c2Oc1ccccc1Cl [Compound 1-11, 5-(2-chlorophenoxy)-6-fluoro-3-((3-fluorobenzyl)amino)-4H-benzo[e][1,2,4]thiadiazine 1,1-dioxide]
  IC50: < 100 nM

## O=S1(=O)N=C(NCc2ccc(F)cc2)Nc2c1ccc(F)c2Oc1ccccc1Cl [Compound 1-12, 5-(2-chlorophenoxy)-6-fluoro-3-((4-fluorobenzyl)amino)-4H-benzo[e][1,2,4]thiadiazine 1,1-dioxide]
  IC50: 100 to 500 nM

## Cc1ccc(NC2=NS(=O)(=O)c3ccc(F)c(Oc4ccccc4Cl)c3N2)cc1 [Compound 1-13, 5-(2-chlorophenoxy)-6-fluoro-3-(p-tolylamino)-4H-benzo[e][1,2,4]thiadiazine 1,1-dioxide]
  IC50: > 2500 nM

## O=S1(=O)N=C(NCc2ncc(F)cc2F)Nc2c1ccc(F)c2Oc1ccccc1Cl [Compound 1-14, 5-(2-chlorophenoxy)-3-(((3,5-difluoropyridin-2-yl)methyl)amino)-6-fluoro-4H-benzo[e][1,2,4]thiadiazine 1,1-dioxide]
  IC50: < 100 nM

## O=S1(=O)N=C(NCc2ncccc2F)Nc2c1ccc(F)c2Oc1ccccc1F [Compound 1-15, 6-fluoro-5-(2-fluorophenoxy)-3-(((3-fluoropyridin-2-yl)methyl)amino)-4H-benzo[e][1,2,4]thiadiazine 1,1-dioxide]
  IC50: 100 to 500 nM

## O=S1(=O)N=C(NCc2ncccc2F)Nc2c1ccc(F)c2Oc1ccc(Cl)cc1Cl [Compound 1-16, 5-(2,4-dichlorophenoxy)-6-fluoro-3-(((3-fluoropyridin-2-yl)methyl)amino)-4H-benzo[e][1,2,4]thiadiazine 1,1-dioxide]
  IC50: 100 to 500 nM

## O=S1(=O)N=C(NCc2ncccc2F)Nc2c1ccc(F)c2Oc1c(F)cccc1Cl [Compound 1-17, 5-(2-chloro-6-fluorophenoxy)-6-fluoro-3-(((3-fluoropyridin-2-yl)methyl)amino)-4H-benzo[e][1,2,4]thiadiazine 1,1-dioxide]
  IC50: 100 to 500 nM

## O=S1(=O)N=C(NCc2ncccc2F)Nc2c1ccc(F)c2Oc1ccc(F)cc1Cl [Compound 1-18, 5-(2-chloro-4-fluorophenoxy)-6-fluoro-3-(((3-fluoropyridin-2-yl)methyl)amino)-4H-benzo[e][1,2,4]thiadiazine 1,1-dioxide]
  IC50: < 100 nM

## O=S1(=O)N=C(NCc2ncccc2F)Nc2c1ccc(F)c2Oc1cccc(F)c1Cl [Compound 1-19, 5-(2-chloro-3-fluorophenoxy)-6-fluoro-3-(((3-fluoropyridin-2-yl)methyl)amino)-4H-benzo[e][1,2,4]thiadiazine 1,1-dioxide]
  IC50: < 100 nM

## COc1ccc(F)c(CNC2=NS(=O)(=O)c3ccc(F)c(Oc4ccccc4Cl)c3N2)c1 [Compound 1-20, 5-(2-chlorophenoxy)-6-fluoro-3-((2-fluoro-5-methoxybenzyl)amino)-4H-benzo[e][1,2,4]thiadiazine 1,1-dioxide]
  IC50: 1000 to 2500 nM

## COc1ccc(F)c(CNC2=NS(=O)(=O)c3ccc(F)c(Oc4ccccc4Cl)c3N2)n1 [Compound 1-21, 5-(2-chlorophenoxy)-6-fluoro-3-(((3-fluoro-6-methoxypyridin-2-yl)methyl)amino)-4H-benzo[e][1,2,4]thiadiazine 1,1-dioxide]
  IC50: 501 to 1000 nM

## O=S1(=O)N=C(NCc2ccccc2C(F)(F)F)Nc2c1cc(F)c(F)c2Oc1ccccc1Cl [Compound 1-22, 5-(2-chlorophenoxy)-6,7-difluoro-3-((2-(trifluoromethyl)benzyl)amino)-4H-benzo[e][1,2,4]thiadiazine 1,1-dioxide]
  IC50: 100 to 500 nM

## O=S1(=O)N=C(NCc2cc(F)ccc2F)Nc2c1ccc(F)c2Oc1ccccc1Cl [Compound 1-23, 5-(2-chlorophenoxy)-3-((2,5-difluorobenzyl)amino)-6-fluoro-4H-benzo[e][1,2,4]thiadiazine 1,1-dioxide]
  IC50: < 100 nM

## Cc1c(F)cccc1CNC1=NS(=O)(=O)c2ccc(F)c(Oc3ccccc3Cl)c2N1 [Compound 1-24, 5-(2-chlorophenoxy)-6-fluoro-3-((3-fluoro-2-methylbenzyl)amino)-4H-benzo[e][1,2,4]thiadiazine 1,1-dioxide]
  IC50: < 100 nM

## O=S1(=O)N=C(NCc2cccc(Cl)c2F)Nc2c1ccc(F)c2Oc1ccccc1Cl [Compound 1-25, 3-((3-chloro-2-fluorobenzyl)amino)-5-(2-chlorophenoxy)-6-fluoro-4H-benzo[e][1,2,4]thiadiazine 1,1-dioxide]
  IC50: < 100 nM

## O=S1(=O)N=C(NCc2ncccc2C(F)(F)F)Nc2c1ccc(F)c2Oc1ccccc1Cl [Compound 1-26, 5-(2-chlorophenoxy)-6-fluoro-3-(((3-(trifluoromethyl)pyridin-2-yl)methyl)amino)-4H-benzo[e][1,2,4]thiadiazine 1,1-dioxide]
  IC50: 1000 to 2500 nM

## O=S1(=O)N=C(NCc2ccccc2C(F)(F)F)Nc2c1ccc(F)c2Oc1ccccc1Cl [Compound 1-27, 5-(2-chlorophenoxy)-6-fluoro-3-((2-(trifluoromethyl)benzyl)amino)-4H-benzo[e][1,2,4]thiadiazine 1,1-dioxide]
  IC50: < 100 nM

## O=S1(=O)N=C(NCc2cnccc2C(F)(F)F)Nc2c1ccc(F)c2Oc1ccccc1Cl [Compound 1-28, 5-(2-chlorophenoxy)-6-fluoro-3-(((4-(trifluoromethyl)pyridin-3-yl)methyl)amino)-4H-benzo[e][1,2,4]thiadiazine 1,1-dioxide]
  IC50: 501 to 1000 nM
